How the values were obtained:
[1] = system: Macrophage cell line; assay: Effect on lipid mediator formation in human M2-like phenotype MDM cells by measuring 15-HEPE formation at 10 uM pre-incubated for 15 mins followed by SACM stimulation and measured after 90 mins by UPLC-MS/MS analysis relative to control; format: functional; conditions: time 105 min, 1.75 h
[2] = system: Macrophage cell line; assay: Effect on lipid mediator formation in human M2-like phenotype MDM cells by measuring PGF2alpha formation at 10 uM pre-incubated for 15 mins followed by SACM stimulation and measured after 90 mins by UPLC-MS/MS analysis (reference value: 72 +/- 21 pg/ml); format: functional; conditions: time 105 min, 1.75 h
[3] = system: Macrophage cell line; assay: Effect on lipid mediator formation in human M2-like phenotype MDM cells by measuring arachidonic acid formation at 10 uM pre-incubated for 15 mins followed by SACM stimulation and measured after 90 mins by UPLC-MS/MS analysis relative to control; format: functional; conditions: time 105 min, 1.75 h
[4] = system: Macrophage cell line; assay: Effect on lipid mediator formation in human M2-like phenotype MDM cells by measuring 7-HDHA formation at 10 uM pre-incubated for 15 mins followed by SACM stimulation and measured after 90 mins by UPLC-MS/MS analysis relative to control; format: functional; conditions: time 105 min, 1.75 h
[5] = molecular target: T1, Polyunsaturated fatty acid 5-lipoxygenase (Homo sapiens) (UniProt P09917); assay: Inhibition of 5-LOX in human Neutrophil at 10 uM preincubated with compound for 15 mins followed by A23187 addition measured after 10 mins by RP-HPLC analysis relative to control; format: cell-based; conditions: time 25.0 min
T1 sequence (whole entry): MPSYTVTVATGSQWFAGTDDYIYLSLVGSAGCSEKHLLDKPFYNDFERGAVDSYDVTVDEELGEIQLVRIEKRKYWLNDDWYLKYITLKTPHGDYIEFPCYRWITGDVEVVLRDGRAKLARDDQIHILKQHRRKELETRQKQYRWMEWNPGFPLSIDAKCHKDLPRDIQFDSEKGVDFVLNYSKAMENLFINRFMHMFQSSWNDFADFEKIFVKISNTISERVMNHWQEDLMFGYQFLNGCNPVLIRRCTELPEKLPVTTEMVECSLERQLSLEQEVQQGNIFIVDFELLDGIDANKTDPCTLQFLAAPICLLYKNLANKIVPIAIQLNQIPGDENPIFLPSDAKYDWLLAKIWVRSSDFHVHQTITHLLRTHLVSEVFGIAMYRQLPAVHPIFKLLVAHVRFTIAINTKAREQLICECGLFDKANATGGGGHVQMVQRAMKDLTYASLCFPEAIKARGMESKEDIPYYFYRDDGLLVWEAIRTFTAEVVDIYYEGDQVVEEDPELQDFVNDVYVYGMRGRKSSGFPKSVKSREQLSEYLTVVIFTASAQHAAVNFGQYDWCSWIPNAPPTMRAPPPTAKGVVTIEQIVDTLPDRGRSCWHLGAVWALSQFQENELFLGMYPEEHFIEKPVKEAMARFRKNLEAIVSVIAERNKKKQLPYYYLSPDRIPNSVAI

[6] = system: Macrophage cell line; assay: Effect on lipid mediator formation in human M2-like phenotype MDM cells by measuring 12-HEPE formation at 10 uM pre-incubated for 15 mins followed by SACM stimulation and measured after 90 mins by UPLC-MS/MS analysis (reference value: 361 +/- 75 pg/ml); format: functional; conditions: time 105 min, 1.75 h
[7] = system: Macrophage cell line; assay: Effect on lipid mediator formation in human M1-like phenotype MDM cells by measuring 5-HEPE formation at 10 uM pre-incubated for 15 mins followed by SACM stimulation and measured after 90 mins by UPLC-MS/MS analysis (reference value: 560 +/- 160 pg/ml); format: functional; conditions: time 105 min, 1.75 h
[8] = system: Macrophage cell line; assay: Effect on lipid mediator formation in human M2-like phenotype MDM cells by measuring PGE2 formation at 10 uM pre-incubated for 15 mins followed by SACM stimulation and measured after 90 mins by UPLC-MS/MS analysis (reference value: 159 +/- 24 pg/ml); format: functional; conditions: time 105 min, 1.75 h
[9] = system: Macrophage cell line; assay: Effect on lipid mediator formation in human M2-like phenotype MDM cells by measuring 7-HDHA formation at 10 uM pre-incubated for 15 mins followed by SACM stimulation and measured after 90 mins by UPLC-MS/MS analysis (reference value: 315 +/- 55 pg/ml); format: functional; conditions: time 105 min, 1.75 h
[10] = system: Macrophage cell line; assay: Effect on lipid mediator formation in human M1-like phenotype MDM cells by measuring PGD2 formation at 10 uM pre-incubated for 15 mins followed by SACM stimulation and measured after 90 mins by UPLC-MS/MS analysis relative to control; format: functional; conditions: time 105 min, 1.75 h
[11] = molecular target: T2, Prostaglandin E synthase (Homo sapiens) (UniProt O14684); assay: Inhibition of human mPGES-1 assessed as enzyme remaining activity at 10 uM relative to control
T2 sequence (whole entry): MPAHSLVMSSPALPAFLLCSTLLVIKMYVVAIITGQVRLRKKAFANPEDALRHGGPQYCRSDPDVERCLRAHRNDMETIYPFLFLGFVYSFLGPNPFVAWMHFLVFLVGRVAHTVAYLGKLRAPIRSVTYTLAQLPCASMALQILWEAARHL

[12] = system: Macrophage cell line; assay: Effect on lipid mediator formation in human M2-like phenotype MDM cells by measuring 5-HEPE formation at 10 uM pre-incubated for 15 mins followed by SACM stimulation and measured after 90 mins by UPLC-MS/MS analysis relative to control; format: functional; conditions: time 105 min, 1.75 h
[13] = system: Macrophage cell line; assay: Effect on lipid mediator formation in human M2-like phenotype MDM cells by measuring 15-HETE formation at 10 uM pre-incubated for 15 mins followed by SACM stimulation and measured after 90 mins by UPLC-MS/MS analysis (reference value: 18426 +/- 5001 pg/ml); format: functional; conditions: time 105 min, 1.75 h
[14] = system: Macrophage cell line; assay: Effect on lipid mediator formation in human M1-like phenotype MDM cells by measuring 15-HETE formation at 10 uM pre-incubated for 15 mins followed by SACM stimulation and measured after 90 mins by UPLC-MS/MS analysis (reference value: 910 +/- 229 pg/ml); format: functional; conditions: time 105 min, 1.75 h
[15] = system: Macrophage cell line; assay: Effect on lipid mediator formation in human M1-like phenotype MDM cells by measuring 17-HDHA formation at 10 uM pre-incubated for 15 mins followed by SACM stimulation and measured after 90 mins by UPLC-MS/MS analysis (reference value: 360 +/- 89 pg/ml); format: functional; conditions: time 105 min, 1.75 h
[16] = system: Macrophage cell line; assay: Effect on lipid mediator formation in human M2-like phenotype MDM cells by measuring PGF2alpha formation at 10 uM pre-incubated for 15 mins followed by SACM stimulation and measured after 90 mins by UPLC-MS/MS analysis relative to control; format: functional; conditions: time 105 min, 1.75 h
[17] = system: Macrophage cell line; assay: Effect on lipid mediator formation in human M1-like phenotype MDM cells by measuring 15-HETE formation at 10 uM pre-incubated for 15 mins followed by SACM stimulation and measured after 90 mins by UPLC-MS/MS analysis relative to control; format: functional; conditions: time 105 min, 1.75 h
[18] = system: Macrophage cell line; assay: Effect on lipid mediator formation in human M1-like phenotype MDM cells by measuring 12-HETE formation at 10 uM pre-incubated for 15 mins followed by SACM stimulation and measured after 90 mins by UPLC-MS/MS analysis relative to control; format: functional; conditions: time 105 min, 1.75 h
[19] = system: Macrophage cell line; assay: Effect on lipid mediator formation in human M2-like phenotype MDM cells by measuring t-LTB4 formation at 10 uM pre-incubated for 15 mins followed by SACM stimulation and measured after 90 mins by UPLC-MS/MS analysis relative to control; format: functional; conditions: time 105 min, 1.75 h

| Structure (SMILES) | Activity [1] [%] | Activity [2] [pg/mL] | Activity [3] [%] | Activity [4] [%] | inhibition [5] [%] | Activity [6] [pg/mL] | Activity [7] [pg/mL] | Activity [8] [pg/mL] | Activity [9] [pg/mL] | Activity [10] [%] | Activity [11] [%] | Activity [12] [%] | Activity [13] [pg/mL] | Activity [14] [pg/mL] | Activity [15] [pg/mL] | Activity [16] [%] | Activity [17] [%] | Activity [18] [%] | Activity [19] [%] |
| --- | --- | --- | --- | --- | --- | --- | --- | --- | --- | --- | --- | --- | --- | --- | --- | --- | --- | --- | --- |
| COc1ccc(C2=C/C(=C/c3ccc(O)cc3O)C(=O)O2)cc1 | 157 | 89 | 103 | 121 | > 50 | 520 | 62 | 412 | 383 | 157 | 89.3 | 18 | 25017 | 823 | 380 | 125 | 90 | 87 | 11 |
| Oc1ccc(CCC2CCC(c3ccc(O)cc3)CO2)cc1 (stereo not drawn) | 140 | 58 | 113 | 116 | > 50 | 462 | 98 | 234 | 364 | 88 | 80.3 | 34 | 26605 | 776 | 485 | 80 | 85 | 87 | 20 |
